Laboratory results reported in US20230085307A1, “PYRIDAZINONE COMPOUND AND HERBICIDE” (NISSAN CHEMICAL CORPORATION, priority 2019, published 2023).

What was measured:
[1] = tested on: chickweed; experiment: Test Example 4: herbicidal effect by soil treatment (Table 19, symbol P); assay type: in vivo, common chickweed (Stellaria media); conditions: amount of applied herbicide 320 g/ha
Outline: (§1)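 In this soil treatment, the formulated compound reached the seeds only through the soil: seeds were buried about 1.5 cm deep in sterilized diluvial soil, then the diluted emulsion was sprayed over the surface. After three weeks at 25° C. to 30° C. in a greenhouse, effects were graded on criteria from an earlier test.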

[2] = tested on: green foxtail; experiment: Test Example 4: herbicidal effect by soil treatment (Table 19, symbol G); assay type: in vivo, green foxtail (Setaria viridis); conditions: amount of applied herbicide 320 g/ha
Outline: as §1

[3] = tested on: late watergrass; experiment: Test Example 1: herbicidal activity, application before weed generation under submerged conditions (Table 16, symbol A); assay type: in vivo, late watergrass (Echinochloa oryzicola); conditions: amount of applied herbicide 320 g/ha
Outline: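 Alluvial soil was flooded to 4 cm depth, weed seeds were sown mixed and 2.5-leaf rice seedlings were transplanted. On sowing day, the compound's emulsion, diluted in water to a set dose, was applied to the water surface. Plants grew at 25–30 °C and were scored 0–5 after three weeks.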

[4] = tested on: green foxtail; experiment: Test Example 5: herbicidal effect by foliage application, plastic box (Table 20, symbol G); assay type: in vivo, green foxtail (Setaria viridis); conditions: for herbicidal effect on green foxtail (G): foliage application, 320 g/ha, three weeks after application
Outline: (§2)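 Plants were sown into sterilized diluvial soil under about 1.5 cm cover and kept in a greenhouse at 25° C. to 30° C. Fourteen days on, foliage received an even spray of the diluted emulsion. Herbicidal or crop effect was judged three weeks afterwards.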

[5] = tested on: Japanese bulrush; experiment: Test Example 2: herbicidal activity, application during weed generation under submerged conditions (Table 17, symbol B); assay type: in vivo, Japanese bulrush (Schoenoplectus juncoides); conditions: AAH 320 g/ha; application during weed generation, submerged conditions
Outline: (§3)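 3-wk visual-criteria score after one water-surface dose. Emulsion formulation, water-diluted to set rate; applied at 1–2 leaf stage; alluvial soil, 4 cm standing water; seeds co-sown; greenhouse 25–30° C.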

[6] = tested on: persian speedwell; experiment: Test Example 5: herbicidal effect by foliage application, plastic box (Table 20, symbol R); assay type: in vivo, Persian speedwell (Veronica persica); conditions: for herbicidal effect on persian speedwell (R): foliage application, 320 g/ha, three weeks after application
Outline: as §2

[7] = tested on: rice flat sedge; experiment: Test Example 3: herbicidal effect by foliage application, Wagner pot (Table 18, symbol E); assay type: in vivo, rice flat sedge (Cyperus iria); conditions: 320 g/ha
Outline: (§4)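 Plants were sown in alluvial soil held under 0.1–0.5 cm standing water and grown 14 days in a greenhouse at 25–30 °C. An emulsifiable formulation, water-diluted to the set dose, was then sprayed onto the foliage, and effects were scored three weeks later using previously defined criteria.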

[8] = tested on: windgrass; experiment: Test Example 5: herbicidal effect by foliage application, plastic box (Table 20, symbol L); assay type: in vivo, windgrass (Apera spica-venti); conditions: for herbicidal effect on windgrass (L): foliage application, 320 g/ha, three weeks after application
Outline: as §2

[9] = tested on: southern crabgrass; experiment: Test Example 5: herbicidal effect by foliage application, plastic box (Table 20, symbol F); assay type: in vivo, southern crabgrass (Digitaria ciliaris); conditions: for herbicidal effect on southern crabgrass (F): foliage application, 320 g/ha, three weeks after application
Outline: as §2

[10] = tested on: oval-leafed pondweed; experiment: Test Example 2: herbicidal activity, application during weed generation under submerged conditions (Table 17, symbol C); assay type: in vivo, oval-leafed pondweed (Monochoria vaginalis); conditions: AAH 320 g/ha; application during weed generation, submerged conditions
Outline: as §3

[11] = tested on: Italian ryegrass; experiment: Test Example 5: herbicidal effect by foliage application, plastic box (Table 20, symbol K); assay type: in vivo, Italian ryegrass (Lolium multiflorum); conditions: for herbicidal effect on Italian ryegrass (K): foliage application, 320 g/ha, three weeks after application
Outline: as §2

[12] = tested on: Italian ryegrass; experiment: Test Example 4: herbicidal effect by soil treatment (Table 19, symbol K); assay type: in vivo, Italian ryegrass (Lolium multiflorum); conditions: amount of applied herbicide 320 g/ha
Outline: as §1

[13] = tested on: persian speedwell; experiment: Test Example 4: herbicidal effect by soil treatment (Table 19, symbol R); assay type: in vivo, Persian speedwell (Veronica persica); conditions: amount of applied herbicide 320 g/ha
Outline: as §1

[14] = tested on: lambsquarters; experiment: Test Example 5: herbicidal effect by foliage application, plastic box (Table 20, symbol O); assay type: in vivo, lambsquarters (Chenopodium album); conditions: for herbicidal effect on lambsquarters (O): foliage application, 320 g/ha, three weeks after application
Outline: as §2

[15] = tested on: windgrass; experiment: Test Example 4: herbicidal effect by soil treatment (Table 19, symbol L); assay type: in vivo, windgrass (Apera spica-venti); conditions: amount of applied herbicide 320 g/ha
Outline: as §1

[16] = tested on: barnyard grass; experiment: Test Example 3: herbicidal effect by foliage application, Wagner pot (Table 18, symbol H); assay type: in vivo, barnyard grass (Echinochloa crus-galli); conditions: 320 g/ha
Outline: as §4

[17] = tested on: late watergrass; experiment: Test Example 2: herbicidal activity, application during weed generation under submerged conditions (Table 17, symbol A); assay type: in vivo, late watergrass (Echinochloa oryzicola); conditions: AAH 320 g/ha; application during weed generation, submerged conditions
Outline: as §3

[18] = amount of applied herbicide 320 g/ha, foliage application after 14-day growth, evaluated three weeks after application

Structure (SMILES)	P: chickweed, herbicidal effect grade [1]	G: green foxtail, herbicidal effect grade [2]	Herbicidal effect, A: late watergrass [3]	herbicidal effect rating, B: Japanese bulrush [5]	herbicidal effect on rice flat sedge (E) [7]	herbicidal effect rating, C: oval-leafed pondweed [10]	K: Italian ryegrass, herbicidal effect grade [12]	R: persian speedwell, herbicidal effect grade [13]	L: windgrass, herbicidal effect grade [15]	herbicidal effect on barnyard grass (H) [16]	herbicidal effect rating, A: late watergrass [17]	herbicidal effect on green foxtail (G) [4]	herbicidal effect on persian speedwell (R) [6]	herbicidal effect on windgrass (L) [8]	herbicidal effect on southern crabgrass (F) [9]	herbicidal effect on Italian ryegrass (K) [11]	herbicidal effect on lambsquarters (O) [14]	other results
COc1ccc(-c2sc3cc(Cl)c(Cl)cc3c2-c2c(O)c(C)nn(C)c2=O)cc1 [5-043]	3 (Herbicidal rate of 40% or more and less than 70%)	0 (Herbicidal rate of 5% or less (almost no effect))	5 (Herbicidal rate of 90% or more (almost completely withered))	0 (Herbicidal rate of 5% or less (almost no effect))	4 (Herbicidal rate of 70% or more and less than 90%)	0 (Herbicidal rate of 5% or less (almost no effect))	0 (Herbicidal rate of 5% or less (almost no effect))	0 (Herbicidal rate of 5% or less (almost no effect))	0 (Herbicidal rate of 5% or less (almost no effect))	3 (Herbicidal rate of 40% or more and less than 70%)	2 (Herbicidal rate of 20% or more and less than 40%)							Herbicidal effect by foliage application, G: green foxtail [4, 18]: 0 (Herbicidal rate of 5% or less (almost no effect)); Herbicidal effect by foliage application, R: persian speedwell [6, 18]: 5 (Herbicidal rate of 90% or more (almost completely withered)); Herbicidal effect by foliage application, L: windgrass [8, 18]: 0 (Herbicidal rate of 5% or less (almost no effect)); Herbicidal effect by foliage application, F: southern crabgrass [9, 18]: 0 (Herbicidal rate of 5% or less (almost no effect)); Herbicidal effect by foliage application, K: Italian ryegrass [11, 18]: 0 (Herbicidal rate of 5% or less (almost no effect)); Herbicidal effect by foliage application, O: lambsquarters [14, 18]: 3 (Herbicidal rate of 40% or more and less than 70%)
COc1ccccc1-c1sc2cc(C)c(C)cc2c1-c1c(O)c(C)nn(C)c1=O [5-090]	1 (Herbicidal rate of 5% or more and less than 20%)	0 (Herbicidal rate of 5% or less (almost no effect))	3 (Herbicidal rate of 40% or more and less than 70%)	2 (Herbicidal rate of 20% or more and less than 40%)	5 (Herbicidal rate of 90% or more (almost completely withered))	0 (Herbicidal rate of 5% or less (almost no effect))	5 (Herbicidal rate of 90% or more (almost completely withered))	1 (Herbicidal rate of 5% or more and less than 20%)	3 (Herbicidal rate of 40% or more and less than 70%)	5 (Herbicidal rate of 90% or more (almost completely withered))	0 (Herbicidal rate of 5% or less (almost no effect))	5 (Herbicidal rate of 90% or more (almost completely withered))	4 (Herbicidal rate of 70% or more and less than 90%)	4 (Herbicidal rate of 70% or more and less than 90%)	1 (Herbicidal rate of 5% or more and less than 20%)	5 (Herbicidal rate of 90% or more (almost completely withered))	4 (Herbicidal rate of 70% or more and less than 90%)	
CCCC(=O)Oc1c(C)nn(C)c(=O)c1-c1c(-c2ccccc2OCC)sc2cc(C)c(C)cc12 [5-095]	3 (Herbicidal rate of 40% or more and less than 70%)	0 (Herbicidal rate of 5% or less (almost no effect))	5 (Herbicidal rate of 90% or more (almost completely withered))	4 (Herbicidal rate of 70% or more and less than 90%)	4 (Herbicidal rate of 70% or more and less than 90%)	4 (Herbicidal rate of 70% or more and less than 90%)	0 (Herbicidal rate of 5% or less (almost no effect))	3 (Herbicidal rate of 40% or more and less than 70%)	0 (Herbicidal rate of 5% or less (almost no effect))	5 (Herbicidal rate of 90% or more (almost completely withered))	4 (Herbicidal rate of 70% or more and less than 90%)	5 (Herbicidal rate of 90% or more (almost completely withered))	5 (Herbicidal rate of 90% or more (almost completely withered))	4 (Herbicidal rate of 70% or more and less than 90%)	5 (Herbicidal rate of 90% or more (almost completely withered))	4 (Herbicidal rate of 70% or more and less than 90%)	3 (Herbicidal rate of 40% or more and less than 70%)	
